Test results reported in PubChem BioAssay (NCI).
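Tested at 5 concentrations; 48 h exposure; 96-well plates; endpoints linearly interpolated, else capped at highest concentration. TGI denotes the concentration required for complete inhibition of growth.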

Experiments:
Assay in all cases: NCI tumour cell line growth inhibition, 48 h
EKVX NSCLC = tested on: EKVX NSCLC
UO-31 renal = tested on: UO-31 renal
SK-OV-3 ovarian = tested on: SK-OV-3 ovarian
MALME-3M melanoma = tested on: MALME-3M melanoma
NCI-H23 lung = tested on: NCI-H23 lung
HT29 colon = tested on: HT29 colon
UACC-62 melanoma = tested on: UACC-62 melanoma
MOLT-4 leukemia = tested on: MOLT-4 leukemia
NCI/ADR-RES ovarian = tested on: NCI/ADR-RES ovarian
TK-10 renal = tested on: TK-10 renal
BT-549 breast = tested on: BT-549 breast
SNB-75 CNS = tested on: SNB-75 CNS
NCI-H522 lung = tested on: NCI-H522 lung
SF-268 CNS = tested on: SF-268 CNS
OVCAR-3 ovarian = tested on: OVCAR-3 ovarian
LOX IMVI melanoma = tested on: LOX IMVI melanoma
SF-539 CNS = tested on: SF-539 CNS
SR leukemia = tested on: SR leukemia

| Compound | TGI (EKVX NSCLC) | TGI (UO-31 renal) | TGI (SK-OV-3 ovarian) | TGI (MALME-3M melanoma) | TGI (NCI-H23 lung) | TGI (HT29 colon) | TGI (UACC-62 melanoma) | TGI (MOLT-4 leukemia) | TGI (NCI/ADR-RES ovarian) | TGI (TK-10 renal) | TGI (BT-549 breast) | TGI (SNB-75 CNS) | TGI (NCI-H522 lung) | TGI (SF-268 CNS) | TGI (OVCAR-3 ovarian) | TGI (LOX IMVI melanoma) | TGI (SF-539 CNS) | TGI (SR leukemia) |
| --- | --- | --- | --- | --- | --- | --- | --- | --- | --- | --- | --- | --- | --- | --- | --- | --- | --- | --- |
| O=C1Nc2ccc(Br)cc2/C1=N/S(=O)(=O)O | 85.7 µM | > 100 µM | > 100 µM | 71.4 µM | > 100 µM | > 100 µM | 40.3 µM | 63.4 µM | > 100 µM | 57.1 µM | > 100 µM | > 100 µM | > 100 µM | > 100 µM | > 100 µM | 28 µM | – | – |
| C=C1CC[C@@H]2C13[C@@H]1[C@H](CC(=O)[C@@]23C)C1(C)C (stereo partly specified) | – | > 100 µM | > 100 µM | > 100 µM | > 100 µM | > 100 µM | > 100 µM | > 100 µM | > 100 µM | > 100 µM | > 100 µM | – | > 100 µM | > 100 µM | > 100 µM | > 100 µM | > 100 µM | > 100 µM |
| CCc1n[nH]c(=O)n1CC | > 100 µM | > 100 µM | > 100 µM | > 100 µM | > 100 µM | > 100 µM | > 100 µM | > 100 µM | > 100 µM | > 100 µM | > 100 µM | – | > 100 µM | > 100 µM | > 100 µM | > 100 µM | > 100 µM | > 100 µM |
| C/C(O)=C(\C=N\C(=S)N=Nc1c(O)[nH]c2ccccc12)C(=O)Nc1ccccc1C | > 100 µM | > 100 µM | > 100 µM | – | > 100 µM | > 100 µM | > 100 µM | > 100 µM | > 100 µM | > 100 µM | > 100 µM | > 100 µM | – | > 100 µM | > 100 µM | > 100 µM | > 100 µM | – |
| CCO/C(O)=C(/C(=N)N1CCOCC1)C(=O)NC(C)C | > 100 µM | – | > 100 µM | > 100 µM | > 100 µM | > 100 µM | > 100 µM | > 100 µM | > 100 µM | > 100 µM | > 100 µM | > 100 µM | > 100 µM | > 100 µM | > 100 µM | > 100 µM | > 100 µM | – |
| CCOC(=O)c1ncn(CCc2ccc(Cl)cc2)c1C | > 100 µM | > 100 µM | – | > 100 µM | > 100 µM | > 100 µM | > 100 µM | > 100 µM | > 100 µM | > 100 µM | > 100 µM | – | > 100 µM | > 100 µM | > 100 µM | > 100 µM | > 100 µM | > 100 µM |
| O=C(Sc1c(-c2ccccc2)c(=O)n(-c2ccccc2)c(=S)n1-c1ccccc1)c1ccccc1 | > 100 µM | > 100 µM | > 100 µM | > 100 µM | > 100 µM | > 100 µM | > 100 µM | 73.3 µM | > 100 µM | > 100 µM | > 100 µM | 88.2 µM | > 100 µM | > 100 µM | > 100 µM | > 100 µM | – | > 100 µM |
| CC(=O)NS(=O)(=O)c1ccc(NCc2cccc3c(=O)c4ccc(Cl)cc4oc23)cc1 | > 100 µM | > 100 µM | > 100 µM | > 93.5 µM | > 71.6 µM | > 100 µM | > 100 µM | > 100 µM | > 80.7 µM | > 100 µM | > 100 µM | > 100 µM | > 83.8 µM | > 100 µM | > 93.3 µM | > 100 µM | > 65.3 µM | – |
| Cc1[nH]c(C)c(CN(C)C)c1CN(C)C | > 100 µM | > 100 µM | > 100 µM | > 100 µM | > 100 µM | > 100 µM | > 100 µM | – | > 100 µM | > 100 µM | > 100 µM | – | > 100 µM | > 100 µM | > 100 µM | > 100 µM | > 100 µM | – |
| CCCCC(=O)/C=c1/cc(C)[nH]c2cccc3cnn1c32 | > 100 µM | > 100 µM | > 100 µM | > 100 µM | > 100 µM | > 100 µM | > 100 µM | > 100 µM | > 100 µM | > 100 µM | > 100 µM | – | > 100 µM | > 100 µM | > 100 µM | > 100 µM | > 100 µM | > 100 µM |
| Clc1cccc(-c2nc3cccc4c3n2Cc2ncccc2-4)c1 | > 100 µM | – | > 100 µM | > 100 µM | > 100 µM | > 100 µM | > 100 µM | – | > 100 µM | > 100 µM | > 100 µM | 58.6 µM | > 100 µM | > 100 µM | > 100 µM | – | > 100 µM | > 100 µM |
| COc1cc(S(=O)(=O)Nc2ccc(-c3csc(N4C(=O)C(C)SC4c4cccs4)n3)cc2)ccc1Cl (stereo unspecified) | > 100 µM | > 100 µM | > 100 µM | > 100 µM | > 100 µM | > 100 µM | > 100 µM | > 100 µM | > 100 µM | – | > 100 µM | – | 56.6 µM | > 100 µM | > 100 µM | 96.7 µM | > 100 µM | > 100 µM |
| N#Cc1c(Cl)cc(C#N)n2c1nc1ccccc12 | 39.5 µM | 19 µM | 51.3 µM | 18.5 µM | 26.8 µM | 21.4 µM | 38.4 µM | 5.4 µM | 42.4 µM | 26.4 µM | 18.4 µM | 38.7 µM | 5.69 µM | 13.6 µM | 10.7 µM | 7.02 µM | 19.1 µM | – |
| CC(O)CNC(=O)Nc1c(C(F)(F)F)cc(-c2ccccc2)[nH]c1=O (stereo unspecified) | > 100 µM | > 100 µM | > 100 µM | > 100 µM | > 100 µM | > 100 µM | > 100 µM | > 100 µM | > 100 µM | > 100 µM | > 100 µM | – | > 100 µM | > 100 µM | > 100 µM | > 100 µM | – | – |
| CC1(c2ccccc2)O[C@@H]2C[C@H]3[C@@H]4CCC5=CC(=O)C=C[C@]5(C)[C@@]4(F)[C@@H](O)C[C@]3(C)[C@]2(C(=O)CO)O1 (stereo partly specified) | 30.4 µM | 33 µM | – | 27.5 µM | 36.3 µM | 32.4 µM | 35.6 µM | – | 36 µM | 41.6 µM | 38.6 µM | 44.8 µM | 25 µM | 49 µM | 28.7 µM | 47.1 µM | – | 76.9 µM |
| CN1CCN(c2cc3nc(-c4ccc(Cl)cc4)[nH]c3cc2F)CC1 | 72.3 µM | 20.6 µM | 59.5 µM | 23.4 µM | 34.2 µM | – | 18.9 µM | 41.1 µM | 67.6 µM | 15.4 µM | 31.1 µM | 50.1 µM | 32 µM | 51.3 µM | 25.7 µM | > 65.6 µM | – | > 100 µM |
| c1ccc2sc(SSSc3nc4ccccc4s3)nc2c1 | > 100 µM | > 100 µM | > 100 µM | > 100 µM | > 100 µM | > 100 µM | > 100 µM | > 100 µM | > 100 µM | > 100 µM | > 100 µM | > 100 µM | > 100 µM | > 100 µM | – | 49 µM | – | > 100 µM |
| O=c1[nH]c2c(c(=O)[nH]1)SC(c1ccccc1)C2 (stereo unspecified) | > 100 µM | > 100 µM | – | > 100 µM | > 100 µM | > 100 µM | – | > 100 µM | > 100 µM | – | > 100 µM | > 100 µM | > 100 µM | > 100 µM | > 100 µM | > 100 µM | > 100 µM | – |
| CCOC(=O)C1=C(C)N(c2ccc(Cl)cc2)C2(O)C=CC(=O)C3=C(O)c4ccccc4C(=O)C312 (stereo unspecified) | 21.4 µM | 15.8 µM | 30.7 µM | 4.53 µM | 25.4 µM | – | 9.01 µM | 8.65 µM | 12.6 µM | 8.03 µM | 28 µM | – | 6.45 µM | 6.86 µM | 5.84 µM | 14 µM | 18.1 µM | – |
| Cc1ccc(N2C(=O)C3c4[nH]c5ccc(C)cc5c4C4CCC(C(C)(C)C)CC4C3C2=O)cc1 (stereo unspecified) | 43.4 µM | > 100 µM | – | 44.4 µM | 39.7 µM | 75.5 µM | 30 µM | 8.06 µM | 60.2 µM | 39.5 µM | 75.9 µM | – | 39.4 µM | 33.2 µM | 27.3 µM | 55.6 µM | – | – |
| CCOC(=O)CN1C(=O)NC(C)(c2ccccc2)C1=O (stereo unspecified) | > 100 µM | > 100 µM | > 100 µM | – | > 100 µM | > 100 µM | > 100 µM | > 100 µM | > 100 µM | > 100 µM | > 100 µM | > 100 µM | > 100 µM | > 100 µM | > 100 µM | > 100 µM | > 100 µM | – |
| CCOC(=O)[C@@H]1[C@@H](c2ccccc2)N(C)O[C@@]1(c1ccccc1)C(F)(F)F | > 100 µM | > 100 µM | > 100 µM | > 100 µM | > 100 µM | > 100 µM | > 100 µM | – | > 100 µM | > 100 µM | > 100 µM | > 100 µM | > 100 µM | > 100 µM | > 100 µM | > 100 µM | – | – |
